In patent US11453674B2, “Heterocyclic compound, preparation method and use thereof in medicine” (SUZHOU SINOVENT PHARMACEUTICALS CO., LTD., priority 2019, dated 2022):

What was measured:
[1] = test system: primary human hepatocytes; test: Cytotoxicity assay on primary human hepatocytes (CellTiter-Glo, 48 h); assay type: cell-based; settings: Hepatocyte, cell viability, 48 h incubation
Method: Example 26: Cytotoxicity Assay of Compounds on Primary Human Hepatocytes
Primary human hepatocytes were purchased from Biorecamation IVT. Co., Ltd. (lot no.: AKB/S1391); the components of in vitro culture media of primary human cell and suppliers are as follows:
1. Frozen primary human hepatocytes were thawed, then resuspended in a culture medium containing 10% FBS. The cells were transferred into a 96-well plate, at 8×10^4 cells/well, followed by incubating overnight in an incubator at 5% CO2 at 37° C.;
2. […] The test compounds and control drug were added to wells, at 100 μL/well, to form test compound wells or reference wells, and the culture medium containing 10% FBS was added to wells, at 100 μL/well, as negative control. The cells were incubated in an incubator in the presence of 5% CO2 at 37° C. for 48 h.
3. The primary human hepatocytes were washed with PBS (0.1 M, pH=7.4) twice, and were added with CellTiter-Glo reagent at 100 μL/well. Cell-free wells added with CellTiter-Glo reagent at 100 μL/well served as the blank control. The 96-well plate was shaken on a shaker for 5 min, and then left at room temperature for 10 min.
4. The chemiluminescence values were detected using Victor X4 (Perkin Elmer). The chemiluminescence values of the test compound wells were denoted as F(test compound), the chemiluminescence values of the blank control wells were denoted as F(blank), and the chemiluminescence values of the negative control wells were denoted as F(negative control). The cell viabilities at different concentrations were calculated according to the following formula. Each concentration was measured in triplicate to give the average and the standard deviation.
5. The half maximal inhibitory concentration (IC50) of the test compounds to the primary human hepatocytes were calculated using Prism Graph software.

hURAT1 = target: T1, hURAT1 (Homo sapiens, UniProt Q96S37); test: Inhibition of 14C-uric acid uptake by hURAT1 in HEK293-transfected cells; assay type: cell-based; settings: HEK-293T cells stably expressing hURAT1, 14C-uric acid uptake, 5 min at 37° C.
T1 construct: expressed in transfected cells
T1 sequence (Q96S37 1-553): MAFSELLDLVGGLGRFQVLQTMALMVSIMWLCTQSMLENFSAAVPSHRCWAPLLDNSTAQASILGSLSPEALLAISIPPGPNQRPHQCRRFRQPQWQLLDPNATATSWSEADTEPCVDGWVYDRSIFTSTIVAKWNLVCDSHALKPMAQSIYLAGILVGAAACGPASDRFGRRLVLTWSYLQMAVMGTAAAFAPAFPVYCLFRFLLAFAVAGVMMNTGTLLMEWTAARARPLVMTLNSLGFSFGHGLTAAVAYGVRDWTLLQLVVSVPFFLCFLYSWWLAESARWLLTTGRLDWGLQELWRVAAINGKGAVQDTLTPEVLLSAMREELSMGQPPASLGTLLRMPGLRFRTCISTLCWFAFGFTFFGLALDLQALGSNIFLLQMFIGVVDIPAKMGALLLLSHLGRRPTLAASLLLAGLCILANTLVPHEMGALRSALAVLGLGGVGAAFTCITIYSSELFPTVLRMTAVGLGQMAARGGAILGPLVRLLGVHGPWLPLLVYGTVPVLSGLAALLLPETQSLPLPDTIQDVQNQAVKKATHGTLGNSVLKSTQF
Method: 1. Cell Culture and Inoculation
2) When the cells covered 80% of the culture medium, the culture medium was removed. The cells were washed with PBS once, followed by digestion with pancreatin-EDTA. After detachment, the cells were added with a culture medium, exfoliated by pipetting, and centrifuged for harvesting. The harvested cells were added with a culture medium and mixed well to give a cell suspension.
3) The cell density was adjusted to 3×10^5 cells/mL, transferred into a white-wall, clear-bottom, 96-well cell culture plate with 100 μL/well, and incubated for 12-24 h.
1) A 20 mM stock solution of the compound was prepared with DMSO. Then the stock solution was diluted to a starting concentration of 2 mM with DMSO.
2) The solution was serially 4-fold diluted with DMSO from […] to the 10th concentration on a 96-well plate serving as the 100× plate, and respective quality controls were prepared.
3) The solutions in corresponding wells were 10-fold diluted with Cl-free HBSS buffer on another 96-well plate serving as the 10× plate.
4) Buffer containing 0.1 μCi/mL ^14C-uric acid, at 45 μL/well, and a 10× diluted compound, at 5 μL/well, were added to a third 96-well plate serving as the 1× plate for later use. The concentration of DMSO was 1%.
3. Uptake of ^14C-Uric Acid in Cells Stably Expressing hURAT1
1) The uptake assay was performed after the cultivated cells in 96-well plates adhered.
2) The cells were washed once with pre-heated buffer at 200 μL/well.
3) After the wells were dried, corresponding compounds (50 μL/well) and 0.1 μCi/mL ^14C-uric acid were immediately added.
4) The plate with the compound was incubated in a 37° C. incubator for 5 min.
5) 150 μL of ice-cold buffer was added to each well to terminate the uptake. Each well was washed three times with buffer. The cells were carefully washed to avoid detachment.
6) 50 μL of lysis buffer was added to each well, prior to shaking at 900 rpm on an oscillator for 5 min.
7) 150 μL of scintillation solution (Microint 40) was added to each well before shaking at 900 rpm for 5 min.
8) Finally, the microwell plate was transferred to a MicroBeta Trilux (PerkinElmer Co. Ltd.) for detection.
The data were analyzed and the IC50 of the quality controls and all test compounds on the plates were calculated using XL-fit software.

IC50 (hURAT1)	SMILES	IC50 [1]
–	CCc1oc2ccccc2c1C(=O)c1cc(Br)c(O)c(Br)c1 [Benzbromarone, reference compound]	6650 nM
< 50 nM	CCc1oc2ccncc2c1C(=O)c1cc(Br)c(O)c(Br)c1 [Example 1, (3,5-dibromo-4-hydroxyphenyl)(2-ethylfuro[3,2-c]pyridin-3-yl) methanone]	–
50 to 200 nM	CCn1nc2ccc(F)cc2c1C(=O)c1cc(Br)c(O)c(Br)n1 [Example 8, (4,6-dibromo-5-hydroxypyridin-2-yl)(2-ethyl-5-fluoro-2H-indazol-3-yl)methanone]	–
